Laboratory results: patent US20100150890A1, “MEDICINAL COMPOSITION, FOOD OR DRINK HAVING EFFECT OF ENHANCING SYMPATHETIC NERVOUS ACTIVITY” (SUNTORY HOLDINGS LIMITED, priority 2005, published 2010)

Assays:
Assay type in all cases: in vivo
[1] = system: kidney sympathetic nervous activity; test: Rat kidney sympathetic nervous activity after transduodenal administration; settings: urethane-anesthetized male rat, transduodenal 10 μg/2 ml per animal, vs physiological saline control; FIG. 3
Experimental: (§1) In these experiments, use was made of male Mister rats weighing about 300 g which had been fed in a thermostatic chamber (24° C.) with a light-dark cycle of 12-hour intervals (under illumination from 8:00 to 20:00) for 1 week or longer. A single rat was employed for each nervous experiment. The animals were fed with a feed (Oriental Yeast, MF) and water ad libitum. The autonomic nervous activity were examined by fasting the rats for 3 hours on the day of the experiment and then subjecting to an abdominal surgery under urethane-anesthesia at the intermediate point of the light period. Then, the effects of the transduodenal administration of 2,3-dihydro-3,5-dihydroxy-6-methyl-4H-pyran-4-one obtained in Example 1 on the kidney sympathetic nervous activity, stomach vagal (parasympathetic) nervous activity and blood pressure were measured in accordance with the method reported by T. Yamano et al., Neurosci. […] A cannula was inserted into the left femoral artery and then the blood pressure was measured by use of a transducer. […] Electrical nervous activity thus obtained were amplified with a condenser type differential amplifier, monitored with an oscilloscope and recorded on a magnetic tape. […] The data was analyzed based on the average discharge frequency per 5 seconds (pulse/5 sec) and expressed as a percentage by referring to the level before the administration as to 100%. […]

[2] = system: stomach vagal (parasympathetic) nervous activity; test: Rat stomach vagal (parasympathetic) nervous activity after transduodenal administration; settings: urethane-anesthetized male rat, transduodenal 10 μg/2 ml per animal, vs physiological saline control; FIG. 5
Experimental: as §1

[3] = system: interscapular brown adipose tissue sympathetic nervous activity; test: Rat interscapular brown adipose tissue sympathetic nervous activity after transduodenal administration; settings: transduodenal administration 10 μg, single rat, FIG. 6
[4] = Rat blood pressure after transduodenal administration (left femoral artery cannula, transducer); settings: urethane-anesthetized male rat, transduodenal 10 μg/2 ml per animal, vs physiological saline control; FIG. 4
Experimental: as §1

[5] = system: epididymal white adipose tissue sympathetic nervous activity; test: Rat epididymal white adipose tissue sympathetic nervous activity after transduodenal administration; settings: transduodenal administration 10 μg, single rat, FIG. 7
[6] = Rat oxygen consumption (energy metabolism) after forced oral administration; settings: male SD rats fasted 16 hours, 40 μg/8 ml/kg body weight forced oral, within 60 minutes after administration, 5 rats per group; FIG. 8
Experimental: Male SD rats aged 7 weeks were preliminarily fed with a solid feed (CE-2: NIPPON CREA) and water ad libitum for 1 week for the habituation to the light-dark cycle of 12-hour intervals. The thus habituated animals were fasted for 16 hours before the administration of the samples and then divided into two groups. Then, 40 μg/8 ml/kg body weight of DDMP and 8 ml/kg body weight of distilled water for injection were forcibly orally administered into the stomach to the respective groups. Within 60 minutes following the administration, oxygen consumption was measured with a metabolic meter for small animals (MK-5000RQ2: manufactured by MUROMACHI KIKAI Co., Ltd.). A combination of a DDMP-administered rat with a water-administered rat was referred to as a single experimental lot and the averages of five combinations (i.e., a DDMP-administered group having 5 rats and a water-administered group having 5 rats) were calculated.

Compound: CC1=C(O)C(=O)C(O)CO1 (stereo not drawn) [DDMP, 2,3-Dihydro-3,5-dihydroxy-6-methyl-4H-pyran-4-one]
- kidney sympathetic nervous activity (discharge frequency vs level before administration) [1]: enhanced
- stomach vagal (parasympathetic) nervous activity [2]: reduced
- interscapular brown adipose tissue sympathetic nervous activity [3]: enhanced
- blood pressure [4]: not elevated
- epididymal white adipose tissue sympathetic nervous activity [5]: enhanced
- oxygen consumption compared with the water-administered group [6]: increase in oxygen consumption
